Structures are written as SMILES.

By IC50 is commonly meant the point on the concentration scale where inhibition reaches its midpoint.

The conditions of series [1]: Hirsch, J. Infec. Dis. 157, 427-431 (1988); cited from earlier work.
Series [2] addresses T1, HIV-RT (purified RT from HIV-1, expressed in E. coli) (Human immunodeficiency virus type 1 group M subtype B, UniProt P04585).
T1 construct: purified RT from HIV-1; made in house; host or cells: E. coli
Put plainly: Inhibition of HIV-1 reverse transcriptase (RT), [3H]-thymidine-5'-triphosphate incorporation. Particulars: purified recombinant HIV-1 RT; HIV-LTR in vitro transcript template, 18 mer primer. The format is biochemical. The source says: Inhibition of reverse transcriptase (RT) by 9b-phenyl-2,3-dihydrothiazolo[2,3-a]isoindol-5(9bH)-one.
The screening test system contains the purified RT from HIV-1, which was expressed by gene-technological methods in E. coli, as well as the components of the initiation complex, such as the in vitro transcripts of the HIV-LTR's with the neighbouring primer binding site as template and an 18 mer oligo-nucleotide as primer complementary to the primer binding site. The [^-3 H]-thymidine-5'-triphosphate incorporation was measured by counting in a β-counter.

Consider `Cc1cn([C@H]2C[C@H](N=[N+]=[N-])[C@@H](CO)O2)c(=O)[nH]c1=O` [AZT, 3'-azido-3'-desoxythymidine], for which, in series [1], the therapeutic range entry is “very narrow therapeutic range”.

For `O=C1c2ccccc2C2(c3cccc(C(F)(F)F)c3)SCCN12` (stereo not shown) [Example 3.15], the IC50 in series [2] is 1 µM.

For `O=C1c2ccccc2C2(c3ccccc3)SCCN12` (stereo not shown) [Example 3.30, 9b-phenyl-2,3-dihydrothiazolo[2,3-a]isoindol-5(9bH)-one], the IC50 in series [2] came to 0.7 µM.

In the case of `O=C1c2ccccc2C2(c3ccc(Cl)cc3)SCCN12` (stereo not shown) [Example 3.2], the IC50 in series [2] came out at 4 µM.

`Cc1cccc(C23SCCN2C(=O)c2ccccc23)c1C` (stereo not shown) [Example 3.8]: the IC50 in series [2] came to 0.8 µM.

As to `COc1cccc(C23SCCN2C(=O)c2ccccc23)c1` (stereo not shown) [Example 3.12], in series [2], the IC50 came to 1.1 µM.

Turning to `O=C1c2ccccc2C2(c3ccccc3)N1CCS2(=O)=O` (stereo not shown) [Example 4, 9b-Phenyl-2,3-dihydrothiazolo[2,3-a]isoindol-5(9bH)-one 1,1-dioxide], in series [2], the IC50 was 1.4 µM.

On to `Cc1cn([C@H]2C[C@H](N=[N+]=[N-])[C@@H](CO[P@](=O)(O)O[P@](=O)(O)OP(=O)(O)O)O2)c(=O)[nH]c1=O` [AZT-TP, 3'-azido-3'-desoxythymidine-5'-triphosphate, reference compound], for which the IC50 in series [2] came out at 6 µM.

`O=C1c2ccccc2C2(c3ccc(Cl)c(Cl)c3)SCCN12` (stereo not shown) [Example 3.4]: the IC50 in series [2] stood at 4 µM.

In the case of `Cc1ccc(C)c(C23SCCN2C(=O)c2ccccc23)c1` (stereo not shown) [Example 3.18], the IC50 in series [2] was determined as 0.95 µM.

The values are drawn from patent publication US5397794A, “Use of thiazoloisoindolinone derivatives as antiviral medicaments” (Boehringer Mannheim GmbH, priority 1990, dated 1995).
